# According to patent US6737383B1, “Herbicidal oxadiazolidines” (priority 1999, dated 2004):
# Experiments:
# surinam grass = assay: Test B pre/postemergence surinam grass; type: in vivo, Brachiaria decumbens
# How it was run: (§1)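 Response is a visual 0-to-10 score relative to untreated plants, where 0 means no effect and 10 means complete control, taken twelve to sixteen days after application. Treatments went onto soil at planting and onto foliage of 1- to 4-leaf plants, using a surfactant-containing non-phytotoxic solvent.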
# cocklebur = assay: Test B pre/postemergence cocklebur; type: in vivo, Xanthium strumarium
# How it was run: as §1
# corn = assay: Test B pre/postemergence corn; type: in vivo, Zea mays
# How it was run: as §1
# crabgrass = assay: Test B pre/postemergence crabgrass; type: in vivo, Digitaria sanguinalis
# How it was run: as §1
# [1] = Preemergence, Rate 62 g/ha, scale of 0 to 10 where 0 is no effect and 10 is complete control
# [2] = Preemergence, Rate 250 g/ha, scale of 0 to 10 where 0 is no effect and 10 is complete control
# [3] = Preemergence, Rate 500 g/ha, scale of 0 to 10 where 0 is no effect and 10 is complete control
# [4] = Rate 62 g/ha, Postemergence, scale 0 to 10 (0 no effect, 10 complete control)
# [5] = Rate 125 g/ha, Postemergence, scale of 0 to 10 where 0 is no effect and 10 is complete control
# [6] = Rate 125 g/ha, Preemergence, scale of 0 to 10 where 0 is no effect and 10 is complete control
# [7] = Rate 250 g/ha, Postemergence, scale of 0 to 10 where 0 is no effect and 10 is complete control
# [8] = Rate 500 g/ha, Postemergence, scale 0 to 10, 0 no effect, 10 complete control
# [9] = Postemergence, Rate 62 g/ha, scale 0 to 10, 0 is no effect, 10 is complete control
# [10] = Postemergence, Rate 250 g/ha, scale 0 to 10, 0 no effect, 10 complete control
# [11] = Preemergence, Rate 62 g/ha, scale 0 to 10 (0 no effect, 10 complete control)
# [12] = Preemergence, Rate 125 g/ha, scale 0 to 10 (0 no effect, 10 complete control)
# [13] = Preemergence, Rate 500 g/ha, scale 0 (no effect) to 10 (complete control)
# [14] = Rate 125 g/ha, Postemergence, scale 0 to 10, 0 no effect, 10 complete control
# [15] = Postemergence, Rate 1000 g/ha, scale 0 to 10 (0 no effect, 10 complete control)
# [16] = Rate 500 g/ha, Postemergence, 0 to 10 scale (0 no effect, 10 complete control)
# [17] = Rate 1000 g/ha, Preemergence, scale 0 to 10 (0 no effect, 10 complete control)
# [18] = Postemergence, Rate 125 g/ha, scale 0 to 10, 0 is no effect, 10 is complete control
# [19] = Rate 62 g/ha, Postemergence, scale of 0 to 10 where 0 is no effect and 10 is complete control
structure (smiles),measurement,setting,value
CC(C)N(C(=O)n1oc(=O)n(C[Si](C)(C)C)c1=O)c1ccc(F)cc1 [Compound 294],B. signalgrass plant response rating,surinam grass; [1],0
same,B. signalgrass plant response rating,surinam grass; [2],7
same,"Plant response rating, B. signalgrass",surinam grass; [3],9
same,B. signalgrass plant response rating,surinam grass; [4],0
same,B. signalgrass plant response rating,surinam grass; [5],0
same,B. signalgrass plant response rating,surinam grass; [6],7
same,"Plant response rating, B. signalgrass",surinam grass; [7],0
same,B. signalgrass plant response rating,surinam grass; [8],0
same,Cocklebur plant response rating,cocklebur; [1],0
same,Cocklebur plant response rating,cocklebur; [2],0
same,Cocklebur plant response rating,cocklebur; [4],0
same,Cocklebur plant response rating,cocklebur; [5],0
same,Cocklebur plant response rating,cocklebur; [6],0
same,"Plant response rating, Cocklebur",cocklebur; [7],0
same,Cocklebur plant response rating,cocklebur; [8],0
same,Corn plant response rating,corn; [1],0
same,Corn plant response rating,corn; [2],0
same,"Plant response rating, Corn",corn; [3],2
same,Corn plant response rating,corn; [4],0
same,Corn plant response rating,corn; [5],0
same,Corn plant response rating,corn; [6],0
same,"Plant response rating, Corn",corn; [7],0
same,Corn plant response rating,corn; [8],0
same,Crabgrass plant response rating,crabgrass; [1],1
same,Crabgrass plant response rating,crabgrass; [2],9
same,"Plant response rating, Crabgrass",crabgrass; [3],10
same,Crabgrass plant response rating,crabgrass; [4],0
same,Crabgrass plant response rating,crabgrass; [5],0
same,Crabgrass plant response rating,crabgrass; [6],9
same,"Plant response rating, Crabgrass",crabgrass; [7],2
Cc1cccc(C(C)C)c1-n1c(=O)on(C(=O)N(c2ccc(Cl)cc2)C(C)C)c1=O [Compound 64],B. signalgrass plant response rating,surinam grass; [9],0
same,B. signalgrass plant response rating,surinam grass; [10],0
same,B. signalgrass plant response rating,surinam grass; [11],0
same,"Plant response rating, B. signalgrass",surinam grass; [12],0
same,"Plant response rating, B. signalgrass",surinam grass; [2],0
same,B. signalgrass plant response rating,surinam grass; [13],0
same,B. signalgrass plant response rating,surinam grass; [14],0
same,B. signalgrass plant response rating,"surinam grass; Rate 500 g/ha, Postemergence, scale of 0 to 10 where 0 is no effect and 10 is complete control",0
same,Cocklebur plant response rating,cocklebur; [9],0
same,Cocklebur plant response rating,cocklebur; [10],0
same,Cocklebur plant response rating,cocklebur; [11],0
same,"Plant response rating, Cocklebur",cocklebur; [12],0
same,"Plant response rating, Cocklebur",cocklebur; [2],0
same,Cocklebur plant response rating,cocklebur; [13],0
same,Cocklebur plant response rating,cocklebur; [14],0
same,Cocklebur plant response rating,cocklebur; [8],0
same,Corn plant response rating,corn; [9],0
same,Corn plant response rating,corn; [10],0
same,Corn plant response rating,corn; [11],0
same,"Plant response rating, Corn",corn; [12],0
same,"Plant response rating, Corn",corn; [2],0
same,Corn plant response rating,corn; [13],0
same,Corn plant response rating,corn; [14],0
same,Corn plant response rating,corn; [8],0
same,Crabgrass plant response rating,crabgrass; [9],0
same,Crabgrass plant response rating,crabgrass; [10],0
same,Crabgrass plant response rating,crabgrass; [11],0
same,"Plant response rating, Crabgrass",crabgrass; [12],0
same,"Plant response rating, Crabgrass",crabgrass; [2],2
same,Crabgrass plant response rating,crabgrass; [13],3
same,Crabgrass plant response rating,crabgrass; [14],0
same,Crabgrass plant response rating,crabgrass; [8],0
"CC(C)N(C(=O)n1oc(=O)n(-c2ccc(Cl)cc2Cl)c1=O)c1ccc(F)cc1 [Compound 7, 4-(2,4-Dichlorophenyl)-N-(4-fluorophenyl)-N-(1-methylethyl)-3,5-dioxo-1,2,4-oxadiazolidine-2-carboxamide]",B. signalgrass plant response rating,surinam grass; [10],0
same,B. signalgrass plant response rating,surinam grass; [15],6
same,"Plant response rating, B. signalgrass",surinam grass; [12],0
same,"Plant response rating, B. signalgrass",surinam grass; [2],0
same,B. signalgrass plant response rating,surinam grass; [13],0
same,B. signalgrass plant response rating,surinam grass; [14],0
same,B. signalgrass plant response rating,surinam grass; [16],3
same,"Plant response rating, B. signalgrass",surinam grass; [17],3
same,Cocklebur plant response rating,cocklebur; [10],0
same,Cocklebur plant response rating,cocklebur; [15],2
same,"Plant response rating, Cocklebur",cocklebur; [2],0
same,Cocklebur plant response rating,cocklebur; [13],0
same,Cocklebur plant response rating,cocklebur; [14],0
same,Cocklebur plant response rating,cocklebur; [16],0
same,"Plant response rating, Cocklebur",cocklebur; [17],0
same,Corn plant response rating,corn; [10],0
same,Corn plant response rating,corn; [15],0
same,"Plant response rating, Corn",corn; [12],0
same,"Plant response rating, Corn",corn; [2],0
same,Corn plant response rating,corn; [13],0
same,Corn plant response rating,corn; [14],0
same,Corn plant response rating,corn; [16],0
same,"Plant response rating, Corn",corn; [17],0
same,Crabgrass plant response rating,crabgrass; [10],1
same,Crabgrass plant response rating,crabgrass; [15],5
same,"Plant response rating, Crabgrass",crabgrass; [12],7
same,Crabgrass plant response rating,crabgrass; [13],8
same,Crabgrass plant response rating,crabgrass; [14],0
same,Crabgrass plant response rating,crabgrass; [16],3
same,"Plant response rating, Crabgrass",crabgrass; [17],8
Cc1cccc(C(C)(C)C)c1-n1c(=O)on(C(=O)N(c2ccc(F)cc2)C(C)C)c1=O [Compound 359],"Plant response rating, B. signalgrass",surinam grass; [18],0
same,"Plant response rating, B. signalgrass",surinam grass; [11],0
same,"B. signalgrass plant response rating (0 to 10 scale, 0 is no effect, 10 is complete control)","surinam grass; Preemergence, Rate 125 g/ha",0
same,B. signalgrass plant response rating,surinam grass; [2],0
same,B. signalgrass plant response rating,surinam grass; [3],0
same,B. signalgrass plant response rating,surinam grass; [19],0
same,"Plant response rating, B. signalgrass",surinam grass; [7],0
same,"Plant response rating, B. signalgrass",surinam grass; [8],0
same,"Plant response rating, Cocklebur",cocklebur; [18],0
same,"Plant response rating, Cocklebur",cocklebur; [11],0
same,Cocklebur plant response rating (0 to 10 scale),"cocklebur; Preemergence, Rate 125 g/ha",0
same,Cocklebur plant response rating,cocklebur; [3],0
same,Cocklebur plant response rating,cocklebur; [19],0
same,"Plant response rating, Cocklebur",cocklebur; [8],1
same,"Plant response rating, Corn",corn; [18],0
same,"Plant response rating, Corn",corn; [11],0
same,Corn plant response rating (0 to 10 scale),"corn; Preemergence, Rate 125 g/ha",0
same,Corn plant response rating,corn; [2],0
same,Corn plant response rating,corn; [3],0
same,Corn plant response rating,corn; [19],0
same,"Plant response rating, Corn",corn; [8],0
same,"Plant response rating, Crabgrass",crabgrass; [18],0
same,"Plant response rating, Crabgrass",crabgrass; [11],0
same,Crabgrass plant response rating (0 to 10 scale),"crabgrass; Preemergence, Rate 125 g/ha",0
same,Crabgrass plant response rating,crabgrass; [2],0
same,Crabgrass plant response rating,crabgrass; [3],0
same,Crabgrass plant response rating,crabgrass; [19],0
same,"Plant response rating, Crabgrass",crabgrass; [8],0
